ChEMBL document CHEMBL3991601, “The target landscape of clinical kinase drugs” (Science, 2017)
The source made the active and inactive calls. Rule as the data show it, for most assays here: actives have a measured Kd and inactives only a lower limit.

Experiments:
[1] = target: T1, Peroxisomal acyl-coenzyme A oxidase 3 (Homo sapiens, UniProt O15254)
T1 sequence (O15254 whole entry): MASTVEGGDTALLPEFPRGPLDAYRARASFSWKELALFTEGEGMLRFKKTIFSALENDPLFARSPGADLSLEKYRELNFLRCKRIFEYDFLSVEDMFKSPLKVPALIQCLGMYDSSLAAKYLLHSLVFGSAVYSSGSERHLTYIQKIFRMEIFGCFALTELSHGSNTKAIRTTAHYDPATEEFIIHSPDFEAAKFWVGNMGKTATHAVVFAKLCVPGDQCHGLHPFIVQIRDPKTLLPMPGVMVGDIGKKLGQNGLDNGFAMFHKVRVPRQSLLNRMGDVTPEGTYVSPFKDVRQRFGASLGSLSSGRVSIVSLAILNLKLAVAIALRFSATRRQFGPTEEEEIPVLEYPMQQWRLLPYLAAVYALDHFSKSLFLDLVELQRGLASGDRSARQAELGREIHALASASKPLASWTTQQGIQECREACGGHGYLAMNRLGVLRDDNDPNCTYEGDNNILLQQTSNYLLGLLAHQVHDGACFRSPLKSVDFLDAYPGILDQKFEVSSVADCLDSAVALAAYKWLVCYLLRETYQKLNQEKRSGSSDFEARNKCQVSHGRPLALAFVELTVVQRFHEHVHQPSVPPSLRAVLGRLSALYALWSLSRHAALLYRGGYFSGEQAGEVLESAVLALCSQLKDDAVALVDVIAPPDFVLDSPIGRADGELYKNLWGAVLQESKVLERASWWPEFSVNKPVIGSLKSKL

[2] = target: Fibroblast growth factor receptor 1 (Homo sapiens, UniProt P11362)
Chain of Fibroblast growth factor receptor 1 (P11362 whole entry): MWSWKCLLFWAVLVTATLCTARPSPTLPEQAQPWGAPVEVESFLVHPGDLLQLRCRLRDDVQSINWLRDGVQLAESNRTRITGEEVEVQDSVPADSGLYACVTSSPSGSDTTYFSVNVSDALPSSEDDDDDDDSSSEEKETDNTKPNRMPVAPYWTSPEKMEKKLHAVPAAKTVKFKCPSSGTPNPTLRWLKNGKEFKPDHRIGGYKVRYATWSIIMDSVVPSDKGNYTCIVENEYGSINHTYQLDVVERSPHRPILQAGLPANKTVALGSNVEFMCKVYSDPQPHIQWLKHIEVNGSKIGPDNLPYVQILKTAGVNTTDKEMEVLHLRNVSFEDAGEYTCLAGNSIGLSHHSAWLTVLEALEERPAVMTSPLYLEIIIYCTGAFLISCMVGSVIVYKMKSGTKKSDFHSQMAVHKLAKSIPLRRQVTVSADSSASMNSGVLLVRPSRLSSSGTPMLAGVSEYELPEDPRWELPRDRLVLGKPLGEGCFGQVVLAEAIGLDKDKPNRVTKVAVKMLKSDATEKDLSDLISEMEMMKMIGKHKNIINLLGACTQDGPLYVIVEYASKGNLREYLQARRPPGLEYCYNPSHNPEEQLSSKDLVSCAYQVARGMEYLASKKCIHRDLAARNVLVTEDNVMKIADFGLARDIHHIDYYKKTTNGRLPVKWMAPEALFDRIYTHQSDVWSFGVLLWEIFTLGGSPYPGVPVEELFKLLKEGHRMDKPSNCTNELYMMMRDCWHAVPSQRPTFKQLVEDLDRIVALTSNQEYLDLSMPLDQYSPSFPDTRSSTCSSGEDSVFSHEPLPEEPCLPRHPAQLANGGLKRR

[3] = target: T2, Mitogen-activated protein kinase kinase kinase 6 (Homo sapiens, UniProt O95382)
T2 sequence (O95382 whole entry): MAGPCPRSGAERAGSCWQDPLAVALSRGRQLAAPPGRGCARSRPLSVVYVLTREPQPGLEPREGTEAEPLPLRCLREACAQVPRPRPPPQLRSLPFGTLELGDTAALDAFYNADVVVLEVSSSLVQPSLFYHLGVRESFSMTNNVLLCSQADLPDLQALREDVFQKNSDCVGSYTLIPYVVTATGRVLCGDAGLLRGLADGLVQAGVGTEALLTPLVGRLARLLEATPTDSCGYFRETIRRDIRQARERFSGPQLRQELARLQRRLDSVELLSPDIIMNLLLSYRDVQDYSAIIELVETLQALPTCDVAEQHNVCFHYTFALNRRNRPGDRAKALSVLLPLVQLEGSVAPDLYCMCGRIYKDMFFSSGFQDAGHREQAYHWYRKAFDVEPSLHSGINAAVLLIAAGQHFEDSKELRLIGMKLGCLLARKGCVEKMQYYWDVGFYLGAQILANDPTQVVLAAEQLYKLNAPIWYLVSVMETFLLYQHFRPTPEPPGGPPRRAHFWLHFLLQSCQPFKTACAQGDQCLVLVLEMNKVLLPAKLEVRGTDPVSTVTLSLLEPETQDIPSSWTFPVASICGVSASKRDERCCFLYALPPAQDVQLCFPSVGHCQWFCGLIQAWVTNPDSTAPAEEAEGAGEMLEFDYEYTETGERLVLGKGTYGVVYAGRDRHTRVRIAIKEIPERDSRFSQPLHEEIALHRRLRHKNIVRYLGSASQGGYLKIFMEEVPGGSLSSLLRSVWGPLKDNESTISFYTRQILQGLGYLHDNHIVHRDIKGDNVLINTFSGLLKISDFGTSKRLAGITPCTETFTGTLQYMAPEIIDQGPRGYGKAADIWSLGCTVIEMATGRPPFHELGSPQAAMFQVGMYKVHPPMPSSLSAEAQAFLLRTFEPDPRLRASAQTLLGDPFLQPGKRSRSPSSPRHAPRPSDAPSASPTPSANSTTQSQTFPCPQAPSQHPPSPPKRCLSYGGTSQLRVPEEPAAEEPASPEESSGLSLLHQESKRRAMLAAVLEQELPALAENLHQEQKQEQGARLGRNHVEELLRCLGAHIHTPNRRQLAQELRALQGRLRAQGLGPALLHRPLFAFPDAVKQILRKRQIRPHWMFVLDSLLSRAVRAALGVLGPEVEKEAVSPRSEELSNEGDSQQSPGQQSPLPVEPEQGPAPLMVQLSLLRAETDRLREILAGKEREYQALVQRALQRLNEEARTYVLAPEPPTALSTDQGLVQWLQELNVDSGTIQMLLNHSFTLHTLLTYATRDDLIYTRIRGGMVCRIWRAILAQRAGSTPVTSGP

[4] = target: Mitogen-activated protein kinase 10 (Homo sapiens, UniProt P53779)
Chain of Mitogen-activated protein kinase 10 (P53779 whole entry): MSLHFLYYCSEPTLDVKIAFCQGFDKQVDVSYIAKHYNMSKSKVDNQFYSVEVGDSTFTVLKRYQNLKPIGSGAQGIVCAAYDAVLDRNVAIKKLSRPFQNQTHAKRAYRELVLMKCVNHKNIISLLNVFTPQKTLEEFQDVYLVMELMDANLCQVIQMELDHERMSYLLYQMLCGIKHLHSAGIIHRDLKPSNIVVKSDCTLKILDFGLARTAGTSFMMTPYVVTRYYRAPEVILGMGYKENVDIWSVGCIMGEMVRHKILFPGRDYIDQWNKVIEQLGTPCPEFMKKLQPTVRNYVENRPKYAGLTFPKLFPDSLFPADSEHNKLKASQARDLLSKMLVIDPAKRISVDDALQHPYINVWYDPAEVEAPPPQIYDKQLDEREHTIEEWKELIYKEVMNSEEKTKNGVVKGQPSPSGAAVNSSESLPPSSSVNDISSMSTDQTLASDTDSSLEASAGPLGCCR

[5] = target: Phosphatidylethanolamine-binding protein 1 (Homo sapiens, UniProt P30086)
Chain of Phosphatidylethanolamine-binding protein 1 (P30086 whole entry): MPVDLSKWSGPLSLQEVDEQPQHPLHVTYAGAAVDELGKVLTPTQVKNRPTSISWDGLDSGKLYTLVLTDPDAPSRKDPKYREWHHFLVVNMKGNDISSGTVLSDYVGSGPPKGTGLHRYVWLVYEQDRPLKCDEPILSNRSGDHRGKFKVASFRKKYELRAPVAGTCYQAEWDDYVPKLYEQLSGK

[6] = target: Rho-associated protein kinase 2 (Homo sapiens, UniProt O75116)
Chain of Rho-associated protein kinase 2 (O75116 whole entry): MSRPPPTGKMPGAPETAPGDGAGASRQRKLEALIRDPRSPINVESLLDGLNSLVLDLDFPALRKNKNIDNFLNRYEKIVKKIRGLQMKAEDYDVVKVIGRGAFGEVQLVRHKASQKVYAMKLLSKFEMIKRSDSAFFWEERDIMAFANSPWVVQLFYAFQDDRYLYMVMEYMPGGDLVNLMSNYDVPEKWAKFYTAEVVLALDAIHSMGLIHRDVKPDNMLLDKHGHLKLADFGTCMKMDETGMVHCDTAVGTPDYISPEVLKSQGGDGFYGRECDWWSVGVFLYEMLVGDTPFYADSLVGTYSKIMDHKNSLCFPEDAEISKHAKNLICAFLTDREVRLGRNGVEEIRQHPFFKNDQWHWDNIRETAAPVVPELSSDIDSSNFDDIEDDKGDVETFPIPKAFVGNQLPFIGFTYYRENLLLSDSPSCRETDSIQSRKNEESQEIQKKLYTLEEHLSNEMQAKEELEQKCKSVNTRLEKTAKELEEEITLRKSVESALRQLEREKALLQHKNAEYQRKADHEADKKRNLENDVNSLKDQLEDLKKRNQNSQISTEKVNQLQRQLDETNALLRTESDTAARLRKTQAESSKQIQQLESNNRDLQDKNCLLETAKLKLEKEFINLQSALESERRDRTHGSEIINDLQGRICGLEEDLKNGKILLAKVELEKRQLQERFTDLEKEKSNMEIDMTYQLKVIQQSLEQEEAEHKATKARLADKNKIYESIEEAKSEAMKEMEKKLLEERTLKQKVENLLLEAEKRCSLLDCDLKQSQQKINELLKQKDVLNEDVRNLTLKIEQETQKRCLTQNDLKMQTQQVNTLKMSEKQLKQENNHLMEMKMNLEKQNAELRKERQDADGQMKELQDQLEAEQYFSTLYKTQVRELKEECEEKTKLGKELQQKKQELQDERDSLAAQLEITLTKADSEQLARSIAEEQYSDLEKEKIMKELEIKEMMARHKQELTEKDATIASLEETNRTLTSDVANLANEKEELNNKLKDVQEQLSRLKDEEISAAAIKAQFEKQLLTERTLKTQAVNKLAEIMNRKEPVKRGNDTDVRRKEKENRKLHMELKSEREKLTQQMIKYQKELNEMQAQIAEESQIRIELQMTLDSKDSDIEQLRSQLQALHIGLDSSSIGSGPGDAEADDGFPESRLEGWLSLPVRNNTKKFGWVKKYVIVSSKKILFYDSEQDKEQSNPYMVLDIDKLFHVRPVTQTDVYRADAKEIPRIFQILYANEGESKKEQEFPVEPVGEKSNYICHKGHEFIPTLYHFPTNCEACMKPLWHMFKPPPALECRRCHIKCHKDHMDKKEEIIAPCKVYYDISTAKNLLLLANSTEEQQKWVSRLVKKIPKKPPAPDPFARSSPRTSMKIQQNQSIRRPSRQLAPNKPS

[7] = target: Ribosomal protein S6 kinase alpha-6 (Homo sapiens, UniProt Q9UK32)
Chain of Ribosomal protein S6 kinase alpha-6 (Q9UK32 whole entry): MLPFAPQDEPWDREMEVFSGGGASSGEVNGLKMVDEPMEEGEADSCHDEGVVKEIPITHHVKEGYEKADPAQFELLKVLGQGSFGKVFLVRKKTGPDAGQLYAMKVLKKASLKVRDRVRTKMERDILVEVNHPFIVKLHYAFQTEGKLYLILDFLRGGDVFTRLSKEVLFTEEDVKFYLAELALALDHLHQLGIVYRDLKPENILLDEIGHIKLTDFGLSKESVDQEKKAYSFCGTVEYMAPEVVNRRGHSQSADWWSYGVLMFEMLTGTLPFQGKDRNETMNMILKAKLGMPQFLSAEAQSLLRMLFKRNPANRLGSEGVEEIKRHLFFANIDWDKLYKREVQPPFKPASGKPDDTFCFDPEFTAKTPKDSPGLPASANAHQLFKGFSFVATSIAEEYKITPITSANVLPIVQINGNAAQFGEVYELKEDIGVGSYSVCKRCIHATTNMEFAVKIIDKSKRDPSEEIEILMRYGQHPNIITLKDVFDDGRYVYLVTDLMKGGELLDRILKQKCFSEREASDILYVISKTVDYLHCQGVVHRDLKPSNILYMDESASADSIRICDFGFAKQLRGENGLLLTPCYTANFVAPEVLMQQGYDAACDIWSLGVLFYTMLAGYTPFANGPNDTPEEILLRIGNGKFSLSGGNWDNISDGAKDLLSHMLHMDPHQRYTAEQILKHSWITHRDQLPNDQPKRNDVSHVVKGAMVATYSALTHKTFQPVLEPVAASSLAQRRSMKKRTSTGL
Also: in the data inactive means no Kd found up to 30 µM.

SMILES	Kd [1]	Kd [2]	Kd [3]	Kd [4]	Kd [5]	Kd [6]	Kd [7]
C[C@@H](Oc1cc(C(=O)Nc2ccc(C(=O)N3CCN(C)CC3)cc2)nnc1N)c1c(Cl)ccc(F)c1Cl	> 30 µM (inactive)	> 30 µM (inactive)	> 30 µM (inactive)	> 30 µM (inactive)	> 30 µM (inactive)	> 30 µM (inactive)	> 30 µM (inactive)
Cc1nc(NC(=O)N2CCC[C@H]2C(N)=O)sc1-c1ccnc(C(C)(C)C(F)(F)F)c1 [ALPELISIB]	> 30 µM (inactive)	> 30 µM (inactive)	> 30 µM (inactive)	> 30 µM (inactive)	> 30 µM (inactive)	> 30 µM (inactive)	> 30 µM (inactive)
COc1cc([C@@H]2c3cc4c(cc3[C@H](O)[C@H]3COC(=O)[C@@H]23)OCO4)cc(OC)c1OC [AXL-1717]	> 30 µM (inactive)	> 30 µM (inactive)	> 30 µM (inactive)	> 30 µM (inactive)	> 30 µM (inactive)	> 30 µM (inactive)	> 30 µM (inactive)
NC(=O)Nc1cc(-c2cccc(F)c2)sc1C(=O)N[C@H]1CCCNC1 [AZD-7762]	> 30 µM (inactive)	> 30 µM (inactive)	> 30 µM (inactive)	> 30 µM (inactive)	> 30 µM (inactive)	> 30 µM (inactive)	1.51 µM (active)
Cn1cnc2c(F)c(Nc3ccc(Br)cc3F)c(C(=O)NOCCO)cc21 [BINIMETINIB]	> 30 µM (inactive)	> 30 µM (inactive)	> 30 µM (inactive)	> 30 µM (inactive)	> 30 µM (inactive)	> 30 µM (inactive)	> 30 µM (inactive)
Cc1cc(Nc2ncc(Cl)c(Nc3ccccc3S(=O)(=O)C(C)C)n2)c(OC(C)C)cc1C1CCNCC1 [CERITINIB]	> 30 µM (inactive)	> 30 µM (inactive)	> 30 µM (inactive)	> 30 µM (inactive)	> 30 µM (inactive)	> 30 µM (inactive)	> 30 µM (inactive)
COc1c(OCCCN2CCOCC2)ccc2c1N=C(NC(=O)c1cnc(N)nc1)N1CCN=C21 [COPANLISIB]	> 30 µM (inactive)	> 30 µM (inactive)	> 30 µM (inactive)	> 30 µM (inactive)	> 30 µM (inactive)	> 30 µM (inactive)	> 30 µM (inactive)
COCC(=O)NC/C=C/c1ccc2ncnc(Nc3ccc(Oc4ccc(C)nc4)c(C)c3)c2c1 [CP-724714]	> 30 µM (inactive)	> 30 µM (inactive)	> 30 µM (inactive)	> 30 µM (inactive)	> 30 µM (inactive)	> 30 µM (inactive)	> 30 µM (inactive)
CC(C)(C)c1nc(-c2cccc(NS(=O)(=O)c3c(F)cccc3F)c2F)c(-c2ccnc(N)n2)s1 [DABRAFENIB]	> 30 µM (inactive)	> 30 µM (inactive)	> 30 µM (inactive)	> 30 µM (inactive)	> 30 µM (inactive)	> 30 µM (inactive)	> 30 µM (inactive)
O=C(Nc1nc2cccc(-c3ccc(CN4CCS(=O)(=O)CC4)cc3)n2n1)C1CC1 [FILGOTINIB]	> 30 µM (inactive)	> 30 µM (inactive)	> 30 µM (inactive)	2.14 µM (active)	> 30 µM (inactive)	> 30 µM (inactive)	> 30 µM (inactive)
Cc1cccc(-c2nn3c(c2-c2ccnc4ccc(C(N)=O)cc24)CCC3)n1 [GALUNISERTIB]	> 30 µM (inactive)	> 30 µM (inactive)	> 30 µM (inactive)	> 30 µM (inactive)	> 30 µM (inactive)	> 30 µM (inactive)	> 30 µM (inactive)
O=C(Nc1cc(C(F)(F)F)cc(C(F)(F)F)c1)c1cc(Cl)ccc1O [IMD-0354]	> 30 µM (inactive)	> 30 µM (inactive)	> 30 µM (inactive)	> 30 µM (inactive)	> 30 µM (inactive)	> 30 µM (inactive)	> 30 µM (inactive)
CNC(=O)c1cccc2cc(Oc3ccnc4cc(OCC5(N)CC5)c(OC)cc34)ccc12 [LUCITANIB]	> 30 µM (inactive)	> 30 µM (inactive)	> 30 µM (inactive)	> 30 µM (inactive)	> 30 µM (inactive)	> 30 µM (inactive)	> 30 µM (inactive)
NC1(c2ccc(-c3nc4ccn5c(=O)[nH]nc5c4cc3-c3ccccc3)cc2)CCC1 [MK-2206]	> 30 µM (inactive)	> 30 µM (inactive)	> 30 µM (inactive)	> 30 µM (inactive)	> 30 µM (inactive)	> 30 µM (inactive)	> 30 µM (inactive)
CN(C[C@@H]1COCCO1)S(=O)(=O)Nc1ccc2ccc3ncc(-c4cnn(C)c4)cc3c(=O)c2c1 [MK-2461]	> 30 µM (inactive)	> 30 µM (inactive)	> 30 µM (inactive)	4.7 µM (active)	> 30 µM (inactive)	> 30 µM (inactive)	> 30 µM (inactive)
Cn1cc(-c2cnc3ccc4ccc(CS(=O)(=O)NCc5ccccn5)cc4c(=O)c3c2)cn1 [MK-8033]	> 30 µM (inactive)	> 30 µM (inactive)	> 30 µM (inactive)	> 30 µM (inactive)	> 30 µM (inactive)	> 30 µM (inactive)	> 30 µM (inactive)
FC(F)(F)c1ccc(/C=C/c2nc(COc3ccc(CCCCn4ccnn4)cc3)co2)cc1 [MUBRITINIB]	> 30 µM (inactive)	> 30 µM (inactive)	> 30 µM (inactive)	> 30 µM (inactive)	> 30 µM (inactive)	> 30 µM (inactive)	> 30 µM (inactive)

Continued, values first:

Kd [1]	Kd [2]	Kd [3]	Kd [4]	Kd [5]	Kd [6]	Kd [7]	SMILES
> 30 µM (inactive)	> 30 µM (inactive)	> 30 µM (inactive)	> 30 µM (inactive)	> 30 µM (inactive)	> 30 µM (inactive)	> 30 µM (inactive)	Cc1csc(-c2nnc(Nc3ccc(Oc4ncccc4-c4ccnc(N)n4)cc3)c3ccccc23)c1 [AMG-900]
> 30 µM (inactive)	> 30 µM (inactive)	> 30 µM (inactive)	> 30 µM (inactive)	> 30 µM (inactive)	> 30 µM (inactive)	> 30 µM (inactive)	CCn1c(C(=O)N(C2CC2)C2CC2)cc2c3c(ncn3C)c(Nc3cc(C)n(C)n3)nc21 [BMS-911543]
> 30 µM (inactive)	> 30 µM (inactive)	> 30 µM (inactive)	0.378 µM	> 30 µM (inactive)	> 30 µM (inactive)	> 30 µM (inactive)	COc1cc2ncnc(Oc3cccc(NC(=O)Nc4cc(C(C)(C)C(F)(F)F)on4)c3)c2cc1OC [CEP-32496]
> 30 µM (inactive)	> 30 µM (inactive)	> 30 µM (inactive)	> 30 µM (inactive)	> 30 µM (inactive)	> 30 µM (inactive)	> 30 µM (inactive)	C#Cc1cccc(Nc2ncnc3cc(OC)c(OCCCCCCC(=O)NO)cc23)c1 [CUDC-101]
